Values quoted from earlier work as cited in US20080032954A1, “Vascular Damaging Agents for Administration as an Intravenous Infusion” (priority 2004, published 2008).

How the values were obtained:
[1] = patients, intravenous infusion at three-week intervals
[2] = phase I study, patients with advanced cancer
[3] = patients, 30 minute intravenous infusion once weekly
[4] = tested on: proliferating endothelial cells
[5] = tested on: tumour; details: nude rats
[6] = 20 mg/kg as 24-hour subcutaneous infusion versus 5 to 10 second IV bolus

COc1ccc(/C=C\c2cc(OC)c(OC)c(OC)c2)cc1O [combretastatin A4]
toxicity profile, 10-minute versus 60-minute infusion [1]: no difference in the toxicity profile

COc1ccc(/C=C\c2cc(OC)c(OC)c(OC)c2)cc1OP(=O)(O)O [combretastatin A4 phosphate]
hemodynamic and cardiac toxic events [2]: numerous hemodynamic and cardiac toxic events were observed

COc1ccc(/C=C\c2cc(OC)c(OC)c(OC)c2)cc1NC(=O)[C@@H](N)CO [AVE8062A]
hypotension [3]: instances of asymptomatic hypotension

COc1cc2c(c(OC)c1OC)-c1ccc(OP(=O)(O)O)cc1[C@@H](NC(C)=O)CC2 [ZD6126, (5S)-5-(acetylamino)-9,10,11-trimethoxy-6,7-dihydro-5H-dibenzo[a,c]cyclohepten-3-yl dihydrogen phosphate]
effect on tubulin cytoskeleton and cell shape [4]: disrupts the tubulin cytoskeleton causing rounding up and/or detachment of proliferating endothelial cells | ischemic changes on ECG (one of the two patients with troponin I elevation, 10 minute IV infusion once every three weeks): reversible grade 2 ischemic changes on ECG | elevation in troponin I (patients, 10 minute intravenous infusion once every three weeks): two patients exhibited grade 3 transient asymptomatic elevation in troponin I | blood pressure change (the other patient with troponin I elevation, 10 minute IV infusion once every three weeks): increase in blood pressure one hour after dosing | toxicity compared to single intravenous bolus [5, 6]: significant increases in toxicity | tumour necrosis compared to single intravenous bolus [5, 6]: no increase in tumour necrosis | tolerability ([5]; 50 mg/kg as 24-hour subcutaneous infusion, in contrast to bolus of the same dose): not tolerated
